Reference: the NIST ThermoML archive (doi:10.1016/j.jct.2018.02.022)
± gives the expanded uncertainty stated by the source.

Assay: xn = mol fraction of the nth substance listed
Details: 92.3 kPa, Liquid; for viscosity: Concentric cylinders viscometry; for speed of sound: Frequency=3 MHz, Single path-length method; for mass density: Vibrating tube method

OCCOCCO [diethylene glycol] + O
Details | mass density, 303.15 K [kg/m3] | mass density, 308.15 K [kg/m3] | speed of sound, 303.15 K [m/s] | speed of sound, 308.15 K [m/s] | viscosity, 303.15 K [mPa·s] | viscosity, 308.15 K [mPa·s]
x1 = 0.0097 | 1003.37 ± 3.2 | 1001.63 ± 3.2 | 1533.2 ± 1.8 | 1542 ± 1.8 | – | –
x1 = 0.0201 | 1010.67 ± 3.2 | 1008.81 ± 3.2 | 1557.2 ± 1.8 | 1564 ± 1.8 | – | –
x1 = 0.0297 | 1017 ± 3.2 | 1015.02 ± 3.2 | 1577.4 ± 1.8 | 1582.4 ± 1.8 | – | –
x1 = 0.0397 | 1023.28 ± 3.2 | 1021.17 ± 3.2 | 1596.1 ± 1.8 | 1599.4 ± 1.8 | – | –
x1 = 0.049 | 1028.58 ± 3.2 | 1026.33 ± 3.2 | – | – | 1.6 ± 0.22 | 1.413 ± 0.2
x1 = 0.0502 | 1029.24 ± 3.2 | 1026.99 ± 3.2 | 1614 ± 1.8 | 1615.7 ± 1.8 | – | –
x1 = 0.0591 | 1033.98 ± 3.2 | 1031.63 ± 3.2 | 1627.4 ± 1.8 | 1627.8 ± 1.8 | – | –
x1 = 0.0703 | 1039.6 ± 3.2 | 1037.11 ± 3.2 | 1642.7 ± 1.8 | 1641.6 ± 1.8 | – | –
x1 = 0.0796 | 1043.88 ± 3.3 | 1041.29 ± 3.3 | 1653.2 ± 1.8 | 1650.9 ± 1.8 | – | –
x1 = 0.0897 | 1048.13 ± 3.3 | 1045.45 ± 3.3 | 1663.2 ± 1.8 | 1659.9 ± 1.8 | – | –
x1 = 0.0992 | 1051.97 ± 3.3 | 1049.2 ± 3.3 | – | – | 2.605 ± 0.36 | 2.273 ± 0.32
x1 = 0.1004 | 1052.46 ± 3.3 | 1049.66 ± 3.3 | 1672.7 ± 1.8 | 1668.3 ± 1.8 | – | –
x1 = 0.149 | 1068.06 ± 3.3 | 1064.94 ± 3.3 | – | – | 3.83 ± 0.54 | 3.297 ± 0.46
x1 = 0.1507 | 1068.42 ± 3.3 | 1065.27 ± 3.3 | 1698.5 ± 1.8 | 1690.5 ± 1.8 | – | –
x1 = 0.1996 | 1079.15 ± 3.3 | 1075.79 ± 3.3 | 1705.1 ± 1.8 | 1695.2 ± 1.8 | – | –
x1 = 0.1998 | 1079.37 ± 3.3 | 1076.01 ± 3.3 | – | – | 5.27 ± 0.74 | 4.501 ± 0.63
x1 = 0.2467 | 1086.77 ± 3.3 | 1083.27 ± 3.3 | 1701.8 ± 1.8 | 1690.9 ± 1.8 | – | –
x1 = 0.249 | 1086.95 ± 3.3 | 1083.44 ± 3.3 | – | – | 6.766 ± 0.95 | 5.753 ± 0.81
x1 = 0.2943 | 1091.84 ± 3.3 | 1088.25 ± 3.3 | 1694.1 ± 1.8 | 1682.5 ± 1.8 | – | –
x1 = 0.2987 | 1092.38 ± 3.3 | 1088.8 ± 3.3 | – | – | 8.326 ± 1.2 | 7.056 ± 0.99
x1 = 0.3501 | 1096.45 ± 3.3 | 1092.82 ± 3.3 | – | – | 9.951 ± 1.4 | 8.401 ± 1.2
x1 = 0.3511 | 1096.61 ± 3.3 | 1092.99 ± 3.3 | 1681.7 ± 1.9 | 1669.7 ± 1.9 | – | –
x1 = 0.3995 | 1099.42 ± 3.3 | 1095.83 ± 3.3 | 1670.2 ± 1.9 | 1658 ± 1.9 | – | –
x1 = 0.4007 | 1099.43 ± 3.3 | 1095.8 ± 3.3 | – | – | 11.5 ± 1.6 | 9.648 ± 1.4
x1 = 0.4504 | 1101.7 ± 3.3 | 1098.07 ± 3.3 | – | – | 12.97 ± 1.8 | 10.79 ± 1.5
x1 = 0.4527 | 1101.88 ± 3.3 | 1098.24 ± 3.3 | 1657.7 ± 1.9 | 1645.4 ± 1.9 | – | –
x1 = 0.4973 | 1103.4 ± 3.3 | 1099.78 ± 3.3 | – | – | 14.26 ± 2 | 11.82 ± 1.7
x1 = 0.5008 | 1103.56 ± 3.3 | 1099.92 ± 3.3 | 1646.6 ± 1.9 | 1634.3 ± 1.9 | – | –
x1 = 0.5449 | 1104.75 ± 3.3 | 1101.11 ± 3.3 | 1637.3 ± 1.9 | 1625 ± 1.9 | – | –
x1 = 0.553 | 1105 ± 3.3 | 1101.38 ± 3.3 | – | – | 15.69 ± 2.2 | 12.94 ± 1.8
x1 = 0.5834 | 1105.61 ± 3.3 | 1101.98 ± 3.3 | 1629.2 ± 1.9 | 1617 ± 1.9 | – | –
x1 = 0.5938 | 1105.91 ± 3.3 | 1102.29 ± 3.3 | – | – | 16.62 ± 2.3 | 13.67 ± 1.9
x1 = 0.6482 | 1106.76 ± 3.3 | 1103.13 ± 3.3 | 1616.6 ± 1.9 | 1604.4 ± 1.9 | – | –
x1 = 0.6514 | 1106.89 ± 3.3 | 1103.27 ± 3.3 | – | – | 17.9 ± 2.5 | 14.67 ± 2.1
x1 = 0.6864 | 1107.34 ± 3.3 | 1103.72 ± 3.3 | – | – | 18.56 ± 2.6 | 15.18 ± 2.1
x1 = 0.6982 | 1107.42 ± 3.3 | 1103.8 ± 3.3 | 1608.1 ± 1.9 | 1596 ± 1.9 | – | –
x1 = 0.7444 | 1107.94 ± 3.3 | 1104.33 ± 3.3 | 1600.4 ± 1.9 | 1588.3 ± 1.9 | – | –
x1 = 0.7556 | 1108.01 ± 3.3 | 1104.38 ± 3.3 | – | – | 19.68 ± 2.8 | 16.06 ± 2.2
x1 = 0.7962 | 1108.41 ± 3.3 | 1104.81 ± 3.3 | 1592.7 ± 2 | 1580.7 ± 2 | – | –
x1 = 0.7999 | 1108.35 ± 3.3 | 1104.73 ± 3.3 | – | – | 20.32 ± 2.8 | 16.57 ± 2.3
x1 = 0.8401 | 1108.74 ± 3.3 | 1105.14 ± 3.3 | 1586.6 ± 2 | 1574.5 ± 2 | – | –
x1 = 0.8525 | 1108.74 ± 3.3 | 1105.13 ± 3.3 | – | – | 20.98 ± 2.9 | 17.08 ± 2.4
x1 = 0.8947 | 1109.09 ± 3.3 | 1105.49 ± 3.3 | 1579.5 ± 2 | 1567.5 ± 2 | – | –
x1 = 0.9002 | 1109.09 ± 3.3 | 1105.5 ± 3.3 | – | – | 21.55 ± 3 | 17.53 ± 2.5
x1 = 0.9092 | 1109.17 ± 3.3 | 1105.58 ± 3.3 | 1577.7 ± 2 | 1565.7 ± 2 | – | –
x1 = 0.919 | 1109.23 ± 3.3 | 1105.64 ± 3.3 | 1576.5 ± 2 | 1564.5 ± 2 | – | –
x1 = 0.9303 | 1109.27 ± 3.3 | 1105.68 ± 3.3 | 1575.3 ± 2 | 1563.3 ± 2 | – | –
x1 = 0.9393 | 1109.28 ± 3.3 | 1105.69 ± 3.3 | 1574.3 ± 2 | 1562.3 ± 2 | – | –
x1 = 0.9473 | 1109.36 ± 3.3 | 1105.77 ± 3.3 | 1573.3 ± 2 | 1561.4 ± 2 | – | –
x1 = 0.9554 | 1109.45 ± 3.3 | 1105.86 ± 3.3 | – | – | 22.07 ± 3.1 | 17.95 ± 2.5
x1 = 0.9566 | 1109.41 ± 3.3 | 1105.82 ± 3.3 | 1572.2 ± 2 | 1560.2 ± 2 | – | –
x1 = 0.9694 | 1109.47 ± 3.3 | 1105.88 ± 3.3 | 1570.8 ± 2 | 1558.9 ± 2 | – | –
x1 = 0.9801 | 1109.52 ± 3.3 | 1105.93 ± 3.3 | 1569.6 ± 2 | 1557.7 ± 2 | – | –
x1 = 0.9915 | 1109.56 ± 3.2 | 1105.97 ± 3.2 | 1568.3 ± 2 | 1556.4 ± 2 | – | –
x1 = 1 | 1109.6 ± 3 | 1106.01 ± 3 | 1567.2 ± 2 | 1555.3 ± 2 | 22.48 ± 3.1 | 18.27 ± 2.6
